In article PMC7681098 (Theranostics, 2021):
Like-named read-outs stand apart in the source and are kept apart here.

Tests used:
FLT3 (ITD) = FLT3 (ITD) (Homo sapiens, UniProt P36888, ITD); assay: biochemical
THP-1 = assay: Cell proliferation MTT assay; type: cell-based; settings: Homo sapiens, 72 h, wild-type FLT3, read-out: Human leukemia cell line IC50 THP-1
Description: (§1) The conditional medium (CM) was prepared from the supernatant of HS-5 cell culture for 5 days under normal culture conditions. At the indicated time point, cell viability was evaluated by MTT assay.

U937 = assay: Cell proliferation MTT assay; type: cell-based; settings: Homo sapiens, U-937, 72 h, wild-type FLT3, read-out: Human leukemia cell line IC50 U937
Description: as §1

MV4-11 = assay: Cell proliferation MTT assay; type: cell-based; settings: Homo sapiens, 72 h, read-out: Human leukemia cell line IC50 MV4-11
Description: as §1

JAK3 = biological target: T1, JAK3 (Homo sapiens, UniProt P52333); assay: Kinase inhibition assay (Reaction Biology); type: biochemical
T1 construct: purchased Reaction Biology Corporation (PA, USA)

FGFR1 = biological target: T2, FGFR1 (Homo sapiens, UniProt P11362); assay: Kinase inhibition assay (Reaction Biology); type: biochemical
T2 construct: purchased Reaction Biology Corporation (PA, USA)

[1] = tested on: BaF3-transfected cells (FLT3-ITD-N676D, FLT3-ITD-F691L); assay: Intravenous implantation of BaF3-transfected cells, survival; type: in vivo, BALB/c nude mice; settings: 10 mg/kg once every other day, 8 cycles
Description: (§2) Data were shown as mean±SD. […] Data were shown as mean±SD. (C) An engrafted tumor model was used to evaluate in vivo antitumor activity. The NOD/SCID mice were intravenously inoculated with MV4-11 cells. […] Log-rank testing was used to compare survival curves among treatment groups. […] (D) Apoptotic assays in engraft model were evaluated by TUNEL assay and cell proliferative activity was measured by Ki67 assay. Images were acquired at ×40 magnification. (E) BALB/c nude mice were subcutaneously inoculated with MV4-11 cells (5×10^6) and bodyweight of each mouse was recorded every other day. (F) Representative photo of tumors from BALB/c nude mice which were inoculated with MV4-11 cells. (G) BALB/c nude mice were subcutaneously inoculated with BaF3 cells bearing FLT3-ITD-N676D (n=6) and FLT3-ITD-F691L (n=6) respectively. […] (H) BALB/c mice were intravenously inoculated with cells used in (G). […] Log-rank testing was used to compare survival curves among treatment groups. […] (I) Representative photos of spleens dissected from mice in (H) inoculated with BaF3 cells bearing FLT-3-ITD-F691L.
Cells were injected into the tail vein of BALB/c nude mice and allowed to engraft for 5 days. […] This schedule was repeated for 8 cycles.

c-Kit = biological target: T3, c-Kit (Homo sapiens, UniProt P10721); assay: Kinase inhibition assay (Reaction Biology); type: biochemical
T3 construct: purchased Reaction Biology Corporation (PA, USA)

ERK2/MAPK1 = biological target: T4, ERK2/MAPK1 (Homo sapiens, UniProt P28482); assay: Kinase inhibition assay (Reaction Biology); type: biochemical
T4 construct: purchased Reaction Biology Corporation (PA, USA)

FLT3 [2] = biological target: T5, FLT3 (Homo sapiens, UniProt P36888); assay: Biolayer interferometry (BLI) binding assay; settings: ForteBio Octet, 0.3 nM to 1000 nM
T5 construct: The intracellular domain of FLT3 (residues 571-994) was cloned into pMal-c2X; MBP (N); made in house; host or cells: E. coli BL21
Description: The intracellular domain of FLT3 (residues 571-994) was cloned into pMal-c2X containing an N-terminal MBP-tag with a TEV protease cleavage site. The recombinant vector was transformed into E. coli. BL21. Expression and purification of recombinant FLT3 were performed as described previously [25]-[27].
All studies were performed with the Super Streptavidin (SSA) biosensors (CA, USA). All binding experiments were performed according to the manufacturer's instructions. For the cellular thermal shift assay (CETSA), experiments were performed as described previously.
A concentration range from 0.3 nM to 1000 nM was defined (Figure 1B). […] CETSA has been used to identify FLT3-LT-171-861 interactions in live cell settings. […] We first verified that the inhibitor could stabilize FLT3 against denaturation using Western blot. […] An obvious thermal shift of the melting curve was detected in the LT-171-861-treated sample (Figure 1C). […] Accordingly, we identified 53 °C as the optimal temperature for isothermal […] fingerprint (ITDRF) CETSA.
(A) Chemical structure of LT-171-861. […] Data were then fitted to obtain KD value. […] Data were first normalized by setting the highest and lowest value in each set to 100% and 0% respectively. […] Cell viability was evaluated by MTT assay respectively. The IC50 values were calculated using nonlinear regression.
T5 sequence (P36888 571-993 limits assumed): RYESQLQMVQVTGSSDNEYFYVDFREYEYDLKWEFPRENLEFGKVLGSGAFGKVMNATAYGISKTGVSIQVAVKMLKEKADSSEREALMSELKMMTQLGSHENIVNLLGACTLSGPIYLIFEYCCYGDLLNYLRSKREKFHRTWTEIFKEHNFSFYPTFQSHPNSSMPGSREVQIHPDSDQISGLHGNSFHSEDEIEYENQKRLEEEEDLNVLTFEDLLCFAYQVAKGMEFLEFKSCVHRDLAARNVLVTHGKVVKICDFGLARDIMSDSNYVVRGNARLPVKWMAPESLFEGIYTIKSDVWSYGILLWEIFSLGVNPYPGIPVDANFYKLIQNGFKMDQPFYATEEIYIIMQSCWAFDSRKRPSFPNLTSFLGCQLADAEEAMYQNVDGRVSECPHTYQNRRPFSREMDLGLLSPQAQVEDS

MV4-11 cells = assay: Bone marrow engrafted model, survival; type: in vivo, NOD-SCID mice; settings: MV4-11 bone marrow engraftment; LT-171-861 10 mg/kg every other day, sorafenib orally every day
Description: Six-week-old female NOD-SCID mice were treated with sub-lethal dose radiation (1.8 Gy) before intravenous injection of MV4-11 cells (5×10^6) or MOLM13 cells (5×10^6).
as §2
Mice that received vehicle treatment died within 30 days after intravenous injection of MV4-11 cells.

FMS = biological target: T6, FMS (Homo sapiens, UniProt P07333); assay: Kinase inhibition assay (Reaction Biology); type: biochemical
T6 construct: purchased Reaction Biology Corporation (PA, USA)

FLT3 [3] = biological target: FLT3 (Homo sapiens, UniProt P36888); assay: FLT3 autophosphorylation by western blot in MV4-11 and MOLM13 cells; type: cell-based; settings: 2 h, read-out: IC50 of inhibition of FLT3 autophosphorylation
Description: Western blot analysis was performed as previously described. AML cell lines, BaF3 transformed cell lines and human primary cells were treated with the indicated concentration of FLT3 inhibitors for 2 h. To examine the phosphorylation levels of FLT3-Y591 (Cat. #3464s), p44/42-Thr202/Tyr204 (Cat. #4370), whole-cell lysates were subjected to immunoblotting with the corresponding primary antibodies from Cell Signaling Technology (MA, USA). Anti-STAT5 (Cat. #a7733), anti-STAT5-Y694 (Cat. #ap0070), anti-ERK1/2 (Cat. #a1013), anti-AKT (Cat. #a7270), anti-AKT-Ser473 (Cat. #ap0098), anti-Caspase 3 (Cat. #a11021), anti-PARP1 (Cat. #a0010), anti-Bcl2 (Cat. #a19693), anti-Mcl-1 (Cat. #a0434), anti-Pim2 (Cat. #a9230), anti-Caspase8 (Cat. #a19549) and anti-FLT3 (Cat. #a12437) were purchased from ABclonal Company (Wuhan, China).
(A) Chemical structure of LT-171-861. […] Data were then fitted to obtain KD value. […] Data were first normalized by setting the highest and lowest value in each set to 100% and 0% respectively. Data were obtained in the presence of the LT-171-861 (blue circle) as positive the control and DMSO (red square) as the negative control. All experiments were performed at three independent occasions and data are given as the mean ± SD. […] Cell viability was evaluated by MTT assay respectively. The IC50 values were calculated using nonlinear regression.

Chain of FLT3 (ITD) (P36888 564-993, change not shown): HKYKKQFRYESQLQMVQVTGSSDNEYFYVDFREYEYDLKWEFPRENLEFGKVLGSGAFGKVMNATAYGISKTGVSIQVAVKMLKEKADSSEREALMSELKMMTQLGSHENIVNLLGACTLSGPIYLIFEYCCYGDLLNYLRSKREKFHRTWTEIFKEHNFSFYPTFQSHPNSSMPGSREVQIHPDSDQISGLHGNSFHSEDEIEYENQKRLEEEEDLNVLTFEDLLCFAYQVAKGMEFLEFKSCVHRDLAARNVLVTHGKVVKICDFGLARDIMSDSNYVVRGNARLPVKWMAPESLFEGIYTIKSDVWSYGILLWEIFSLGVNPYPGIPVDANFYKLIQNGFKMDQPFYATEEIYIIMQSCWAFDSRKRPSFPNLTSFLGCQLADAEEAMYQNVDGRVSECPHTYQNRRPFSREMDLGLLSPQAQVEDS
T4 sequence (P28482 whole entry): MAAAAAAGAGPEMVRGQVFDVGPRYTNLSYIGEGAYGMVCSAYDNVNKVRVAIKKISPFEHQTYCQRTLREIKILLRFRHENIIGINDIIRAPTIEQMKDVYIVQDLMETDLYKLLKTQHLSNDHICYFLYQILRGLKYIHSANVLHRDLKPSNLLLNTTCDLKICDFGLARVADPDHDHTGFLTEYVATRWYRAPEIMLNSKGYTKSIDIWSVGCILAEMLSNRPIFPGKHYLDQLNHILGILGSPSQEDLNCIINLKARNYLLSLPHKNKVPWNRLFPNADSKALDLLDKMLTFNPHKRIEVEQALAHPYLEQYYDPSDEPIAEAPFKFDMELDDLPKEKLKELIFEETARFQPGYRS
T3 sequence (P10721 26-976): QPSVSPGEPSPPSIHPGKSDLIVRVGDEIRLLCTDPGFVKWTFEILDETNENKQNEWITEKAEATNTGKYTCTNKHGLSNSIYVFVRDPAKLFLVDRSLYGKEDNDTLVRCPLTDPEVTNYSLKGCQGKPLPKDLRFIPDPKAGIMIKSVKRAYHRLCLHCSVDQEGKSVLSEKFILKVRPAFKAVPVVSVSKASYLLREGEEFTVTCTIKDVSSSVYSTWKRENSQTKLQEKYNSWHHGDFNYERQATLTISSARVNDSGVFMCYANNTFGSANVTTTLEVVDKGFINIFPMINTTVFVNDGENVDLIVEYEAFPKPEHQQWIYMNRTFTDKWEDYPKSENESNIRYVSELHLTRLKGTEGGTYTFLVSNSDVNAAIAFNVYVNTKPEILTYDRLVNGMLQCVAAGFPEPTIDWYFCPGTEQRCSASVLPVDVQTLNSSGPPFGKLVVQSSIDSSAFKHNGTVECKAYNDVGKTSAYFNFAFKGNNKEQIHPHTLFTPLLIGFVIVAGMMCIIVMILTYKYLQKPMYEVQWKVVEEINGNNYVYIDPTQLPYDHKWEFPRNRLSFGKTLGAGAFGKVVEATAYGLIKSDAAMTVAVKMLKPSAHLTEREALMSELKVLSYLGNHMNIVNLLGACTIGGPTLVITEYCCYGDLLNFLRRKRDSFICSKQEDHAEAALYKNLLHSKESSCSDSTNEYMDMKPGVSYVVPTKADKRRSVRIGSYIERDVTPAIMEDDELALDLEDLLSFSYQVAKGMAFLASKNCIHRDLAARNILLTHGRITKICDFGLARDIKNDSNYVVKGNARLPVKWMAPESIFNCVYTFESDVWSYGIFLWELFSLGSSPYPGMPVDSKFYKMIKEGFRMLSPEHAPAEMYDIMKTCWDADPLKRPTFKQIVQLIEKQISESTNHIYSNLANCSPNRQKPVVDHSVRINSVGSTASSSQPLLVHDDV
T6 sequence (P07333 20-972): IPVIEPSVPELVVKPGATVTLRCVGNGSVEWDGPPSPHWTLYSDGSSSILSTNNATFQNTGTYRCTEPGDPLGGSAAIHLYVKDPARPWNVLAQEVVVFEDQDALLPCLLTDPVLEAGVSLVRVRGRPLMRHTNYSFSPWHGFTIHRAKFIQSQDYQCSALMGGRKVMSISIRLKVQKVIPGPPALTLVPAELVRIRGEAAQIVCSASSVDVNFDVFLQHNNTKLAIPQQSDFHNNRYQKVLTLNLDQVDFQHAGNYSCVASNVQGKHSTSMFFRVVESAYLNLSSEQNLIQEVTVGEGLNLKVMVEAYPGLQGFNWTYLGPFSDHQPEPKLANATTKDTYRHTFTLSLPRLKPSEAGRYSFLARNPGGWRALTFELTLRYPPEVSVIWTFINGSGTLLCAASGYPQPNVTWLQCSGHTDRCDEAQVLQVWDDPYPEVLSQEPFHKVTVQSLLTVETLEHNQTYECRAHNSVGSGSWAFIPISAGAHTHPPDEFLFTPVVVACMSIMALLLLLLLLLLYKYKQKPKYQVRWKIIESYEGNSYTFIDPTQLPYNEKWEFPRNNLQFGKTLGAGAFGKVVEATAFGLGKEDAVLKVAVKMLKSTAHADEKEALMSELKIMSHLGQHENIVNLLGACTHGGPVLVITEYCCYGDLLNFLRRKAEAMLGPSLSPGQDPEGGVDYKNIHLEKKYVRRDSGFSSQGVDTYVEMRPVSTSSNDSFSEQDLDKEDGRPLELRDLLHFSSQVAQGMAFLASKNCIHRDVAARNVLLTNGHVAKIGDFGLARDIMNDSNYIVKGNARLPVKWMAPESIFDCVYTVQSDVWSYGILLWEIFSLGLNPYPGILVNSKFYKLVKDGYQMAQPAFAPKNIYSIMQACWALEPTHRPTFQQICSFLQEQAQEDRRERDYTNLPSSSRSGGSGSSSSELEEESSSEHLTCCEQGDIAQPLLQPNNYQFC
T2 sequence (P11362 22-822): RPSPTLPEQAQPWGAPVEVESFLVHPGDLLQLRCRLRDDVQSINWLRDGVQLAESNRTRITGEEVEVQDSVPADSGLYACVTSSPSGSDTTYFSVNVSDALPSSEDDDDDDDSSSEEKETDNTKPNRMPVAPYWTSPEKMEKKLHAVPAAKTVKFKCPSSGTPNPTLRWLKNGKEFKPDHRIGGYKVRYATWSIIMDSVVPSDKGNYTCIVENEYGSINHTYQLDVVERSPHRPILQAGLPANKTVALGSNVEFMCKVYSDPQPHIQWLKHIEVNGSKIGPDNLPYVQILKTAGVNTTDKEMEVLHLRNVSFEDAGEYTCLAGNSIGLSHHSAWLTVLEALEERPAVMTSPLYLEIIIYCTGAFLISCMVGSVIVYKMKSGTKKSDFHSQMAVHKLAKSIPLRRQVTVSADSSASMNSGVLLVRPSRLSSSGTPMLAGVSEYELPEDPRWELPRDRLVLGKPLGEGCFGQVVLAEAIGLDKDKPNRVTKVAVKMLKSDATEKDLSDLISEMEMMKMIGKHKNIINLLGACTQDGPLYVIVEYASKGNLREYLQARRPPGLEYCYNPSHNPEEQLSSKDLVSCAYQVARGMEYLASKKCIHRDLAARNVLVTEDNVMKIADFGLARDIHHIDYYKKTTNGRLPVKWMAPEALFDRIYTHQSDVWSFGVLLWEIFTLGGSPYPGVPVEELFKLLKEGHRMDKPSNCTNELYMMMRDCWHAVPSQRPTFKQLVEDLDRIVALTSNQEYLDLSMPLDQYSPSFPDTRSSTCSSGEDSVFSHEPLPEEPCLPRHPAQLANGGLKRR
T1 sequence (P52333 whole entry): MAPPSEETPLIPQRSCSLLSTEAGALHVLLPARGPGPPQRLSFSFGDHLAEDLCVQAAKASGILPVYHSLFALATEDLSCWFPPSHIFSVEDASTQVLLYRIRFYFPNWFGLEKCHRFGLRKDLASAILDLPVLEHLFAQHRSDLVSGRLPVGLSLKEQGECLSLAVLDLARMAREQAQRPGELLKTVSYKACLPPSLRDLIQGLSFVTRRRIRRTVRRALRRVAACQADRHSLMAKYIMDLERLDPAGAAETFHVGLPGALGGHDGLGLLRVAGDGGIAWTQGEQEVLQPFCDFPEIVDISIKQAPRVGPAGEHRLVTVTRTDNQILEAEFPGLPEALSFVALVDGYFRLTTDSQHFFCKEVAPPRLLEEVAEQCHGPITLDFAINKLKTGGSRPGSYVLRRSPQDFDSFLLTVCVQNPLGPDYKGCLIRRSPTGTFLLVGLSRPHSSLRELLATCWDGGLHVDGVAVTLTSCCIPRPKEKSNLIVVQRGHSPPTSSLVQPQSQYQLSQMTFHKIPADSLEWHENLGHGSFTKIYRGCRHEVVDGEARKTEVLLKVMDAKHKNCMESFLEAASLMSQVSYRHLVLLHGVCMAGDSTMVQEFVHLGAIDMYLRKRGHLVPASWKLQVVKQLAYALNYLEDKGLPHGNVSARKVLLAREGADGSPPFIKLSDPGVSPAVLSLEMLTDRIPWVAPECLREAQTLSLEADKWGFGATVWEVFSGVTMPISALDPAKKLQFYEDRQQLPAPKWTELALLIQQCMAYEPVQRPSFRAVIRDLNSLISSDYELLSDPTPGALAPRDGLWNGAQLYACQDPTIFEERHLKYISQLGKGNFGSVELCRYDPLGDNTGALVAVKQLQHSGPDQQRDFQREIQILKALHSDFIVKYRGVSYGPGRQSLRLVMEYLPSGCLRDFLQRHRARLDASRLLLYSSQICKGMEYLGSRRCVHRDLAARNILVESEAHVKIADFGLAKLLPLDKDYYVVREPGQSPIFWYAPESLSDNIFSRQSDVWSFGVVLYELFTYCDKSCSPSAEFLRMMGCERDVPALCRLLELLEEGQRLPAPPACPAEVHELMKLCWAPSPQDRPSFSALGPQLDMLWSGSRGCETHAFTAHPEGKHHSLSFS

Question: Which IC50 (FLT3 (ITD)) does the source give for CN1CCN(Cc2ccc(NC(=O)c3n[nH]cc3Nc3ncnc4[nH]ccc34)cc2)CC1 [LT-171-861] here?
Answer: < 0.001 µM

Question: And the IC50 (FLT3 (ITD); 10 μM ATP, 10-dose IC50 mode)?
Answer: 0.000718 µM

Question: And the IC50 (THP-1)?
Answer: 0.505 µM

Question: And the IC50 (U937)?
Answer: 0.495 µM

Question: What about the IC50 (MV4-11) of the same compound?
Answer: 0.0018 µM

Question: What about the IC50 (JAK3) of the same compound?
Answer: 0.0326 µM

Question: What about the IC50 (FGFR1) of the same compound?
Answer: 0.02 µM

Question: And the survival versus vehicle [1]?
Answer: significant survival advantage

Question: And the IC50 (c-Kit)?
Answer: > 0.2 µM

Question: And the IC50 (c-Kit; 10 μM ATP, 10-dose IC50 mode)?
Answer: 1.81 µM

Question: What about the IC50 (ERK2/MAPK1; 10 μM ATP, 10-dose IC50 mode, read-out: IC50 ERK2/MAPK1) of the same compound?
Answer: 0.798 µM

Question: And the IC50 (ERK2/MAPK1; read-out: IC50 ERK2)?
Answer: > 0.2 µM

Question: What about the Kd (FLT3 [2]) of the same compound?
Answer: 0.00331 µM

Question: And the survival versus vehicle (MV4-11 cells)?
Answer: increased survival rates

Question: What about the IC50 (FMS) of the same compound?
Answer: > 0.2 µM

Question: And the IC50 (FMS; 10 μM ATP, 10-dose IC50 mode)?
Answer: 0.247 µM

Question: And the IC50 (FLT3 [3])?
Answer: ≤ 0.04 µM
